Test results: patent EP2149557A1, “Styrylquinolines, their process of preparation and their therapeutic uses” (BioAlliance Pharma, priority 2008, dated 2010)

Columns and labels:
HeLa-P4 cell = assay: Viability assay (cytotoxicity, MTT); assay type: cell-based; conditions: 2 days, comparative compound table, read-out: Cytotoxicity IC50
Protocol: (§1) The cytotoxicity of compounds was evaluated using un-infected and infected HeLa-P4 cell and CEM leukemia cells. CEM cell were obtained from the […] (Rockville, MD). A serial dilution of drugs is done to evaluate the cytotoxicity concentration and is identified by CC50 (concentration of drug which induces 50% of cytotoxicity) The HeLa-P4 was cultured in the presence or absence of compounds for 2 days. After this time period, cells were cultivated with MTT for 3 hours, further the medium is removed. And the lysis buffer is incubated for 1 hour, followed by plate reading at 540 nm in a microplate reader.

[1] = Viability assay (cytotoxicity, MTT); assay type: cell-based; conditions: human, HeLa-P4 cells, read-out: Cytoto -xicity IC50
Protocol: as §1

HBX2 HIV integrase [2] = molecular target: T1, HBX2 HIV integrase (Human immunodeficiency virus type 1 group M subtype B, UniProt P04585); assay: Strand transfer assay; assay type: biochemical; conditions: IN 200nM, substrate DNA 12.5 nM, up to 2 h at 37°C, read-out: Transfert IC50
Protocol: The pET-15b-IN plasmid contains the cDNA encoding the HBX2 HIV integrase. His-tagged integrase protein was overexpressed in Escherichia coli BL21 (DE3) and purified under native conditions. Briefly, at an OD of 0.8, fusion protein expression was induced in bacterial cultures by the addition of IPTG (1 mM). Cultures were incubated for 3 h at 37°C, after which cells were centrifuged. The cell pellet was resuspended in ice-cold buffer A [20 mM Tris-HCl (pH 8), 1 M NaCl, 4 mM β-mercaptoethanol, and 5 mM imidazole], treated with lysozyme for 1 h on ice, and sonicated. After centrifugation (30 min at 10 000 rpm), the supernatant was filtered (0.45 µm) and incubated for at least 2 h with Ni-NTA agarose beads (Pharmacia). The beads were washed twice with 10 volumes of buffer A, 10 volumes of buffer A with 50 mM imidazole, and 10 volumes of buffer A with 100 mM imidazole. His-tagged integrase was then eluted with buffer A supplemented with 50 µM ZnS04 and 1 M imidazole. […]
Processing, strand transfer reactions were performed using U5A-U5B-2, in buffer containing 20 mM Tris (pH 7.2), 50 mM NaCl, 10 mM DTT, 10mM MgCl2. […] Gels were analyzed using a STORM Molecular Dynamics phosphorimager and quantified with Image Quant™ 4.1 software.

HBX2 HIV integrase [3] = molecular target: T1, HBX2 HIV integrase; assay: 3' LTR processing assay; assay type: biochemical; conditions: 3' processing, IN 200nM, substrate DNA 12.5 nM, up to 2 h at 37°C
Protocol: For processing, strand transfer, 100 pmol of U5B, U5B-2, respectively, were radiolabeled using T4 polynucleotide kinase and 50 µCi of [γ-32P]ATP (3000 Ci/mmol). The T4 kinase was heat inactivated, and unincorporated nucleotides were removed using a Sephadex G-10 column (GE HealthCare). NaCl was added to a final concentration of 0.1 M, and complementary unlabeled strand U5A was added to either U5B or U5B-2. The mixture was heated to 90°C for 3 min, and the DNA was annealed by slow cooling.
Processing reaction was performed using U5A-U5B, in buffer containing 20 mM Tris (pH 7.2), 50 mM NaCl, 10 mM DTT, and 10mM MgCl2. […] The reactions were stopped by phenol/chloroform extraction, and DNA products were precipitated with ethanol. The products were separated in TE containing 7 M urea and electrophoresed on an 18% denaturing acrylamide/urea gel. Gels were analyzed using a STORM Molecular Dynamics phosphorimager and quantified with Image Quant™ 4.1 software.

[4] = system: wild type HIV-1 virus (NL 4.3 strains); assay: Antiviral activity assay on Hela P4 cells (beta-galactosidase, CPRG); assay type: cell-based; conditions: Human immunodeficiency virus 1; HelaP4 cells, 48 hours incubation
Protocol: The antiviral activity is determined by infecting HelaP4 cells with a wild type HIV-1 virus (NL 4.3 strains at 3 ng) on cells in presence or absence of drugs. A serial dilution of drugs is done to evaluate the EC50. The effective concentration is the concentration of product at which virus replication is inhibited by 50 percent. After 48 hours incubation, the quantification is done by the evaluation of β-Galactosidase produced by the infected Hela P4 cells. The viral activity is evaluated by colorimetric assay, CPRG, followed by plate reading at 570 nm with a reference of 690 nm. The CPRG test is a colorimetric assay which allows to quantity the β-galactosidase produced by HIV-1 infected indicator cells (the β-Gal gene being under the control of the HIV-1 LTR).

SMILES | CC50 (HeLa-P4 cell) [µM] | IC50 at 2 days [1] [µM] | IC50 (HBX2 HIV integrase [2]) [µM] | IC50 (HBX2 HIV integrase [3]) [µM] | IC50 [4] [µM]
COc1cc(/C=C/c2ccc3ccc(C(=O)O)c(O)c3n2)cc(O)c1O [FZ41, reference compound] | > 100 | – | – | – | –
CC(=O)c1ccc2ccc(/C=C/c3cc(O)c(O)cc3O)nc2c1O [SQE 95, (E)-1-(8-hydroxy-2-(2,4,5-trihydroxystyryl)quinolin-7-yl)ethanone] | – | 12.5 | 0.199 | 0.199 | 13.8
